Test results: ChEMBL document CHEMBL1201862, “PubChem BioAssay data set” (2004)
Active and inactive are the calls of the source.

Key:
[1] = inhibitors of Vif binding to APOBEC3G peptide, primary screen, biochemical, TR-FRET, GST-Vif 1-94, biotin-A3G peptide, dose response retest (AID 1117319); type: functional;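 further: TR-FRET signal of purified GST-Vif binding a biotinylated A3G peptide; inhibitors lower the FRET signal by blocking Vif and A3G binding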
[2] = biological target: Mitochondrial peptide methionine sulfoxide reductase (Bos taurus, UniProt P54149); type: functional;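 further: absorbance read-out, biochemical high-throughput dose-response screen for MsrA inhibitors, confirmatory; recombinant bovine MsrA coupled to E. coli TrxB with NADPH and selenocystamine; potency is for inhibitors of MsrA activity on DMSO substrate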
Chain of Mitochondrial peptide methionine sulfoxide reductase (P54149 whole entry): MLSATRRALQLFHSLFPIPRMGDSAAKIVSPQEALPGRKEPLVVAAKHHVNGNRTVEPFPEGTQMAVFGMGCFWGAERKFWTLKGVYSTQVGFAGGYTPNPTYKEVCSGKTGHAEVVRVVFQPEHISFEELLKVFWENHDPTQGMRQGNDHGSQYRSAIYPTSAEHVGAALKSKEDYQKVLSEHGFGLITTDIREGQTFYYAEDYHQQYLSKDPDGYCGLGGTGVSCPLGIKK

Aurora kinase B = Aurora kinase B (Homo sapiens, UniProt Q96GD4); type: functional
Chain of Aurora kinase B (Q96GD4 whole entry): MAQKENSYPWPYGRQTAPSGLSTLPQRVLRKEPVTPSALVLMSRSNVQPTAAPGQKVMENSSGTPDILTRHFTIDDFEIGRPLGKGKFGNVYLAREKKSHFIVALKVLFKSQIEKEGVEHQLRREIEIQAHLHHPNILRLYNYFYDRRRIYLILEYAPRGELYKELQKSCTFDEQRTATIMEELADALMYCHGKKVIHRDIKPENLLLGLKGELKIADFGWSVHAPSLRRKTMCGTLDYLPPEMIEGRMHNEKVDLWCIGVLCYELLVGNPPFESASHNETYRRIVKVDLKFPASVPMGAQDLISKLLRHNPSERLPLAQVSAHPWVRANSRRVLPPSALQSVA

[3] = biological target: T1, Orexin/Hypocretin receptor type 1 (Homo sapiens, UniProt O43613); experiment: (§1) Fluorescence-based cell-based high throughput dose response assay for antagonists of the orexin 1 receptor (OX1R; HCRTR1). [Related pubchem assays (depositor defined):AID434989, AID435008, AID463079, AID485270, AID492963, AID492964, AID492965, AID493232, AID504717, AID504718]; type: functional
T1 sequence (O43613 whole entry): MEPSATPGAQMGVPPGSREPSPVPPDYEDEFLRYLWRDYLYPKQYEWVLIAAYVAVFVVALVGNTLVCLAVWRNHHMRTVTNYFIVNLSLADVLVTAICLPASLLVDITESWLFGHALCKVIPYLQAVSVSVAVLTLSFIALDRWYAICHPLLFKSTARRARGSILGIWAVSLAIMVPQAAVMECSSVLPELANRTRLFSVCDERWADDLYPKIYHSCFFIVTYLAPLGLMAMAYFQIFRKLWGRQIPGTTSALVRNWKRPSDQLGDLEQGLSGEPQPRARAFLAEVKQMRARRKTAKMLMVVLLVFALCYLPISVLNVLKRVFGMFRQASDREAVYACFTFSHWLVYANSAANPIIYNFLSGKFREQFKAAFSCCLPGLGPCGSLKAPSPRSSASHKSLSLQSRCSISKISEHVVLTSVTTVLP

Orexin receptor type 2 [4] = biological target: T2, Orexin receptor type 2 (Homo sapiens, UniProt O43614); experiment: Counterscreen assay for antagonists of the orexin 1 receptor (OX1R; HCRTR1): Fluorescence-based cell-based dose response assay for antagonists of the orexin 2 receptor (OX2R; HCRTR2), run by assay provider.; type: functional
T2 sequence (O43614 whole entry): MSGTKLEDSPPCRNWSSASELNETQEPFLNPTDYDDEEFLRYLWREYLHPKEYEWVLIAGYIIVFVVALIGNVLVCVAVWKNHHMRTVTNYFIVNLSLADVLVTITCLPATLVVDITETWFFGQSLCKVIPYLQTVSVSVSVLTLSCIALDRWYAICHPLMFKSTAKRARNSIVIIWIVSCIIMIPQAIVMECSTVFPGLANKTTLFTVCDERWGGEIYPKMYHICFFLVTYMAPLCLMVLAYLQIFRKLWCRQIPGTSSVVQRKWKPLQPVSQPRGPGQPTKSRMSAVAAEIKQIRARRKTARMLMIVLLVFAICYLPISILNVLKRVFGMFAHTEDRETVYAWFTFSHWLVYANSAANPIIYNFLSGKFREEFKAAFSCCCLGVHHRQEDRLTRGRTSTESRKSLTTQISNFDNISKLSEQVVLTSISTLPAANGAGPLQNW

[5] = biological target: T1, Orexin/Hypocretin receptor type 1; experiment: as §1, with “Homogeneous Time Resolved Fluorescence (HTRF)-based” for “Fluorescence-based”; type: functional
Orexin receptor type 2 [6] = biological target: T2, Orexin receptor type 2; experiment: Counterscreen assay for antagonists of the orexin 1 receptor (OX1R; HCRTR1): Homogeneous Time Resolved Fluorescence (HTRF)-based cell-based dose response assay for antagonists of the orexin 2 receptor (OX2R; HCRTR2), run by assay provider.; type: functional
CHO-K1 = experiment: (§2) Counterscreen for antagonists of the orexin 1 receptor (OX1R; HCRTR1): Homogeneous time resolved fluorescence (HTRF)-based cell-based dose response assay to identify antagonists of the parental CHO-K1 cell line. [Related pubchem assays (depositor defined):AID434989, AID435008, AID463079, AID485270, AID492963, AID492964, AID492965, AID493232, AID504699, AID504701]; type: functional; settings: Cricetulus griseus
[7] = as §2, with “Fluorescence-based” for “Homogeneous time resolved fluorescence (HTRF)-based”, “cell-based high throughput” for “cell-based”, “CHO” for “CHO-K1”; type: functional
INS1 = experiment: beta cell apoptosis inhibitors, cytokine rescue, dose response, luminescence, retest (AID 449756); type: functional, cell-based; settings: Rattus norvegicus;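 further: cell death triggered by IL-1 beta plus TNF-alpha plus IFN-gamma mixture; protective hits raise ATP signal compared with cytokine alone wells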
[8] = NIH-3T3 fibroblast cytotoxicity, dose response, cytotoxicity control for antifungal single agent project, cell-based, Alamar Blue, dry powder (AID 602188); type: functional
[9] = biological target: Serine/threonine-protein phosphatase (Candida dubliniensis (strain CD36 / CBS 7987 / NCPF 3949 / NRRLY-17841) (Yeast), UniProt B9W6M3); experiment: calcineurin pathway inhibitors in yeast reporter, dose response, S. cerevisiae, CDRE-lacZ, luminescence, secondary (AID 2388); type: functional, cell-based;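 further: yeast reporter cells carrying a calcineurin-responsive lacZ construct stimulated with calcium chloride; luminescent beta-galactosidase reporter signal in whole cells rather than isolated phosphatase activity; potency for inhibition where a drop in reporter signal means calcineurin blockade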
Chain of Serine/threonine-protein phosphatase (B9W6M3 whole entry): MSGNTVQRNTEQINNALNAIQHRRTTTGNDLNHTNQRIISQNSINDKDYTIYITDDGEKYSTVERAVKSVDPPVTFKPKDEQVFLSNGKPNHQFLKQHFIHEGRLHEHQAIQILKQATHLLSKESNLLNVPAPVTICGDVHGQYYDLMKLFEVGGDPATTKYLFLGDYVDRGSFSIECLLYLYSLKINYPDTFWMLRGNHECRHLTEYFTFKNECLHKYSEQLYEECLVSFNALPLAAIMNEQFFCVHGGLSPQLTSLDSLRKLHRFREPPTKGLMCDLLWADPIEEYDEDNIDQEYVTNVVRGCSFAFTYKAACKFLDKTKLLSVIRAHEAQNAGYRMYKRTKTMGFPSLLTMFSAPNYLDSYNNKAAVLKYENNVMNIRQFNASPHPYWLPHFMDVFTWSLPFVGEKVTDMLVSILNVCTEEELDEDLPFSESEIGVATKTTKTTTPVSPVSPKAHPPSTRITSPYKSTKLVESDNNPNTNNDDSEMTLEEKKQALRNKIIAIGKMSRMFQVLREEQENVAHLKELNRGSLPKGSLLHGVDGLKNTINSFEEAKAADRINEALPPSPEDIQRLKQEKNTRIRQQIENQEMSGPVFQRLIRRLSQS

Streptococcus = experiment: Group A Streptococcus viability loss, dose response, counter-screen for streptokinase expression inhibitor project, luminescence, BacTiterGlo (AID 1915); type: functional, organism-based;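 further: potency for reduction of bacterial viability or growth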
[10] = biological target: ATP-dependent molecular chaperone HSP82 (Candida albicans (strain WO-1) (Yeast), UniProt C4YTQ8); experiment: loss of DOC-induced GRE-beta-galactosidase reporter signal, dose response, Hsp90 inhibitor project, S. cerevisiae, luminescence (AID 2400); type: functional, cell-based;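 further: beta-galactosidase luminescence from glucocorticoid response element reporter as proxy for Hsp90 function; inhibitor potency where signal loss means Hsp90 inhibition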
Chain of ATP-dependent molecular chaperone HSP82 (C4YTQ8 whole entry): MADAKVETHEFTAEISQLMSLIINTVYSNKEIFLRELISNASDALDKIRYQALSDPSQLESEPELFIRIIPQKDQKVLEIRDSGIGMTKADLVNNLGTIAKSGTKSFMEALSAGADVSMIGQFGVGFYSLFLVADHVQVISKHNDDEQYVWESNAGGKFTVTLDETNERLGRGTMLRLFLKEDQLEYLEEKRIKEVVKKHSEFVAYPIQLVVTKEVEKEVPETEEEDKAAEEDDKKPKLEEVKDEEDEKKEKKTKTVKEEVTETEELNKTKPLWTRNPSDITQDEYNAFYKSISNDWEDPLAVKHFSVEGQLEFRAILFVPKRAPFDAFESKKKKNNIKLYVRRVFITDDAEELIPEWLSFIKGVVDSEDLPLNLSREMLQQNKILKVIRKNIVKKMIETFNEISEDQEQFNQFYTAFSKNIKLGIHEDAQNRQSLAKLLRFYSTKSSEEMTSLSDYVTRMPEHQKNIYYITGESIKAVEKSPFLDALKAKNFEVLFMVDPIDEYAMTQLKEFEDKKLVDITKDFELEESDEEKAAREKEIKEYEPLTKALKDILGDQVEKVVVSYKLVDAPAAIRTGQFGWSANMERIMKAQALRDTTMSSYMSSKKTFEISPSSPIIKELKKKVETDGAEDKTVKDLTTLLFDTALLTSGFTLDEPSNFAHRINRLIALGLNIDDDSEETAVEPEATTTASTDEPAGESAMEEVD

[11] = NIH-3T3 fibroblast cytotoxicity, dose response, cytotoxicity control, cell-based, fluorescence, Alamar Blue, secondary assay (AID 2327); type: functional;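 further: NIH-3T3 mouse fibroblasts cultured with fluconazole at 8 µg/mL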
[12] = cytotoxicity toward NIH3T3 fibroblasts, dose response, counter-screen, cell-based, ATP luminescence, mouse fibroblasts (AID 2010); type: functional;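 further: cells exposed to compound for about 90 hours before reading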
[13] = inhibitors of SNCA 5'UTR-driven reporter translation, confirmation, H4 neuroglioma cells, luminescence (AID 1988); type: functional, cell-based
[14] = C. albicans growth with fluconazole, confirmation, fluorescence, retest (AID 2467); type: functional, cell-based
[15] = inhibitors of intracellular T. cruzi replication, confirmation, NIH3T3 host cells, beta-gal luminescence (AID 2044); type: functional, cell-based;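 further: intracellular parasites grown in NIH/3T3 mouse fibroblasts as host cells; luminescent beta-galactosidase reporter signal from transgenic T. cruzi replicating inside host cells; inhibitors lower the luminescence signal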
[16] = inhibitors of firefly luciferase expression or activity, dose response, H4 neuroglioma cells, luminescence (AID 1990); type: functional, cell-based
[17] = tested on: Streptococcus sp. 'group A'; experiment: growth inhibition of control SK(-) GAS strain, dose response, counter-screen for streptokinase expression inhibitor project, luminescence, kanamycin, BacTiterGlo, confirmation (AID 1900); type: functional, organism-based
[18] = Luminescence Cell-Based Dose Response HTS to Identify Inhibitors of 5'UTR Stem-Loop Driven Prion Protein mRNA Translation in H4 Neuroglioblastoma Cells. [Related pubchem assays: 1827 (Project Summary), 1813 (Primary HTS)]; type: functional
[19] = biological target: T3, Neuropeptides B/W receptor type 1 (Homo sapiens, UniProt P48145); experiment: GPR7 antagonist potency, late-stage follow-up, cell-based, fluorescence, dose response, set 6 (AID 588583); type: functional
T3 sequence (P48145 whole entry): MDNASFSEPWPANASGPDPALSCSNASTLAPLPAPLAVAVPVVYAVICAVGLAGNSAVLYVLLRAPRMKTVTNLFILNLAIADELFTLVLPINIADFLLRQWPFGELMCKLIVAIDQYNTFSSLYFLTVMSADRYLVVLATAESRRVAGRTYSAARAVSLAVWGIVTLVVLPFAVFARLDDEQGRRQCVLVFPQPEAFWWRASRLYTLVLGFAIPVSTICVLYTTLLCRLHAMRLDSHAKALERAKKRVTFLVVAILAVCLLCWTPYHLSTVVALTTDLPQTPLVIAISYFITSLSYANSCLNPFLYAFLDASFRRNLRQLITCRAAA

[20] = biological target: Melanin-concentrating hormone receptor 1 (Homo sapiens, UniProt Q99705); experiment: Late-stage fluorescence-based counterscreen for antagonists of the G-protein coupled receptor 7 (GPR7): cell-based dose response assay to identify antagonists of the melanin-concentrating hormone receptor 1 (MCHR1) Set 6.; type: functional
Chain of Melanin-concentrating hormone receptor 1 (Q99705 whole entry): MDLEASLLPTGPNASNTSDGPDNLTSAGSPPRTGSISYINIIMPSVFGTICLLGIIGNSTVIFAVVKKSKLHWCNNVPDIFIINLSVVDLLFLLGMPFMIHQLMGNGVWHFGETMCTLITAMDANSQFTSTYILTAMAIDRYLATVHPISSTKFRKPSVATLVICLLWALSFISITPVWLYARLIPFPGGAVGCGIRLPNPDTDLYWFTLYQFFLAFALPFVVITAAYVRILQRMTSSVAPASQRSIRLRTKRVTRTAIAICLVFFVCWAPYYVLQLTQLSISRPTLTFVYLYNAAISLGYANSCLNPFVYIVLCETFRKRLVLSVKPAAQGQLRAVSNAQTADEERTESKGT

[21] = biological target: Benomyl/methotrexate resistance protein (Candida albicans, UniProt P28873); experiment: CaMdr1 efflux pump inhibitor potency, dose response, singleplex, Cherry Pick1 hits (AID 588608); type: functional
Chain of Benomyl/methotrexate resistance protein (P28873 whole entry): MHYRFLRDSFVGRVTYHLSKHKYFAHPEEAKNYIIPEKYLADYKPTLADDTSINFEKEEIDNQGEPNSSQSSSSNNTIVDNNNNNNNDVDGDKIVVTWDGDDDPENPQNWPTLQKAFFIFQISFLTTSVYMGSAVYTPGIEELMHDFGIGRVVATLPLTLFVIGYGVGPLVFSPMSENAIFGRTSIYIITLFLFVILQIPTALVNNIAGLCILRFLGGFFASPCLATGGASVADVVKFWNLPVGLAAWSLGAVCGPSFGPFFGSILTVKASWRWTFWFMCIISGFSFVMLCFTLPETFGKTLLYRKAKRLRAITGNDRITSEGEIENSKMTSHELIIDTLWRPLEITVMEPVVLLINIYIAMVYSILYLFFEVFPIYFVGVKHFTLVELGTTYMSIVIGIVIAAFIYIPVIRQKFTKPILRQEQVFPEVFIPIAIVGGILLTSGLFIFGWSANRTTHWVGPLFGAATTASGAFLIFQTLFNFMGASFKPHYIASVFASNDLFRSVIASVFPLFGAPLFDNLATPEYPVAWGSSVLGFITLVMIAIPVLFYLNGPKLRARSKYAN

Melanocortin receptor 4 = Melanocortin receptor 4 (Homo sapiens, UniProt P32245); type: functional, cell-based;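 further: Cell-based assay with luminescence read-out, confirmatory dose-response testing for agonist activity of biased ligands at MC4R; human U2OS cells with tagged receptor and beta-arrestin; potency of agonists that increase receptor coupling to beta-arrestin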
Chain of Melanocortin receptor 4 (P32245 whole entry): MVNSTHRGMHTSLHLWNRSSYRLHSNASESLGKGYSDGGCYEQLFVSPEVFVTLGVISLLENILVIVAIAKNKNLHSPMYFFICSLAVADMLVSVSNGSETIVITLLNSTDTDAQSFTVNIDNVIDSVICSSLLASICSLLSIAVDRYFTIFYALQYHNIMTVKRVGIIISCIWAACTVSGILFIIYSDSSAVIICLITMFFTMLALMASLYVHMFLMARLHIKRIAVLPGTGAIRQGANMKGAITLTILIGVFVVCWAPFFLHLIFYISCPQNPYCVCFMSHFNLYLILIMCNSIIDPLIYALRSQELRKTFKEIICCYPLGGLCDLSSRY

[22] = biological target: Tyrosine-protein phosphatase non-receptor type 11 (Homo sapiens, UniProt Q06124); experiment: SHP2 phosphatase inhibition, dose response, selectivity assay for STEP inhibitor project, biochemical (AID 602367); type: functional; settings: read-out: IC50_Mean
Streptokinase A = biological target: T4, Streptokinase A (Streptococcus pyogenes serotype M1, UniProt P10520); experiment: S. pyogenes streptokinase expression inhibitors, potency, dose response, plasminogen activation absorbance, OD405 (AID 1914); type: functional, Streptococcus pyogenes M1 GAS;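 further: secreted streptokinase activity via plasminogen activation per viability signal from cell pellet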
T4 sequence (P10520 whole entry): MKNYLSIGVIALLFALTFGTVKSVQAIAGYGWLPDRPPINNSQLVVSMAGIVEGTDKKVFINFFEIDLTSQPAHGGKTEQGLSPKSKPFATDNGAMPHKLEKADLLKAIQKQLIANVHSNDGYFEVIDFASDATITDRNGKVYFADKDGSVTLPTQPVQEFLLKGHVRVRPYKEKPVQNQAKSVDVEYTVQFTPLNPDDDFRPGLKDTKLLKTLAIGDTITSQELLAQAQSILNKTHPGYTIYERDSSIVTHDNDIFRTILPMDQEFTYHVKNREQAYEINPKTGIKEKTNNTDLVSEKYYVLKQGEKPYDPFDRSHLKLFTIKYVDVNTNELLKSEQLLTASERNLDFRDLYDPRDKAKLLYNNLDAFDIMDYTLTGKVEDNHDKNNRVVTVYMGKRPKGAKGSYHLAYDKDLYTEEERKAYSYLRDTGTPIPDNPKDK

[23] = biological target: Tyrosine-protein phosphatase non-receptor type 5 (Homo sapiens, UniProt P54829); experiment: STEP phosphatase inhibitors, confirmation, biochemical, fluorescence intensity, uHTS hits (AID 602372); type: functional; settings: read-out: IC50_Mean
Chain of Tyrosine-protein phosphatase non-receptor type 5 (P54829 whole entry): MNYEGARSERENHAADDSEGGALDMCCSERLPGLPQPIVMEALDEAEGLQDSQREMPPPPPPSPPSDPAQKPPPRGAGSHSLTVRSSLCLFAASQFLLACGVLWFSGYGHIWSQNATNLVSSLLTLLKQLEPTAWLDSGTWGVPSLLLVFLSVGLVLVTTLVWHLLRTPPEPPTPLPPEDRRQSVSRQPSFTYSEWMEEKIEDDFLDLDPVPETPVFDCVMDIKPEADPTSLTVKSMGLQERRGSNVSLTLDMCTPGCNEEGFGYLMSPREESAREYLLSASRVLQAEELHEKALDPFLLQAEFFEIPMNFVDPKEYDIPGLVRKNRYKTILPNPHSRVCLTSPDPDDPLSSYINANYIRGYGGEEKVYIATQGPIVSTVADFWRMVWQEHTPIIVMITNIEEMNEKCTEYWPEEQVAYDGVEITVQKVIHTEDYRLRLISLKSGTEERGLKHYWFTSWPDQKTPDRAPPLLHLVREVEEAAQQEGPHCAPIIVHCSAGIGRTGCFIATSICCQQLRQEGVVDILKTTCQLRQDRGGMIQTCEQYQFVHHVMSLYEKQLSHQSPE

[24] = biological target: Dual specificity protein phosphatase 3 (Homo sapiens, UniProt P51452); experiment: VHR phosphatase inhibition, dose response, selectivity assay for STEP inhibitor project, biochemical (AID 602374); type: functional; settings: read-out: IC50_Mean
Chain of Dual specificity protein phosphatase 3 (P51452 whole entry): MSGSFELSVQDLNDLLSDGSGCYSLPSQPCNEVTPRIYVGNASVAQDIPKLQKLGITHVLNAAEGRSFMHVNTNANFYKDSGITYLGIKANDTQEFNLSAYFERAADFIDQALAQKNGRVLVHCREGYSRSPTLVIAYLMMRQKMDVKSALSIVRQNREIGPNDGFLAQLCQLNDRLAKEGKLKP

[25] = biological target: Potassium voltage-gated channel subfamily KQT member 2 (Rattus norvegicus, UniProt O88943); experiment: KCNQ2 potassium channel inhibitors, dose response, cell-based, automated electrophysiology, set II, rat KCNQ2 (AID 588637); type: functional
Chain of Potassium voltage-gated channel subfamily KQT member 2 (O88943 whole entry): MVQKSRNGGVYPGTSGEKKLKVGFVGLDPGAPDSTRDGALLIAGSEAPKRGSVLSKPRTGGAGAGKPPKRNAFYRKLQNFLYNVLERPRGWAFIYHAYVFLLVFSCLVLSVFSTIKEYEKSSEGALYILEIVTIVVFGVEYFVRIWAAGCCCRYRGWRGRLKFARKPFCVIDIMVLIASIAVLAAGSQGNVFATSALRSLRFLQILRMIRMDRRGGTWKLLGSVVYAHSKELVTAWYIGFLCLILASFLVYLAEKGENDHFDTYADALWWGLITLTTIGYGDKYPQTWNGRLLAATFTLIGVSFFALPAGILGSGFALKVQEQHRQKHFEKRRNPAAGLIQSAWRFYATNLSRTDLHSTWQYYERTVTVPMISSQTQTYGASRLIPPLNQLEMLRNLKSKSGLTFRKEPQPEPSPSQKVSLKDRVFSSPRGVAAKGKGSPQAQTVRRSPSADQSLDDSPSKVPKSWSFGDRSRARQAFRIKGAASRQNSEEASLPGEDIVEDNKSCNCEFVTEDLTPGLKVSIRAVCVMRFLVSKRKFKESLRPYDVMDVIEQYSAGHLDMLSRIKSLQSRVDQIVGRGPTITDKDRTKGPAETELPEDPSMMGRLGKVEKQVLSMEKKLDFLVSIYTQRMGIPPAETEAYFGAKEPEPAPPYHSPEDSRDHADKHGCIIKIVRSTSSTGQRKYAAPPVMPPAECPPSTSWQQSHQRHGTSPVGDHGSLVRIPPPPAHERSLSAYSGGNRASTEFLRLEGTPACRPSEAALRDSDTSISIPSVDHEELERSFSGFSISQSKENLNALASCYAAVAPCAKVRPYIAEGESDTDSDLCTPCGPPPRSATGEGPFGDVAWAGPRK

[26] = biological target: Ras and Rab interactor 1/Tyrosine-protein kinase ABL1 (Homo sapiens, UniProt P00519+Q13671); type: functional;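 further: biochemical TR-FRET dose-response test measuring inhibition of binding between Rin1 and Abl proteins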

## NC(=S)N/N=C/c1ccc(-c2cccc([N+](=O)[O-])c2)o1
[1]
  IC50: > 100 µM (active)
[2]
  IC50: 155 µM (inactive)

## O=C(O)c1ccccc1Nc1ccnc(Nc2ccc(O)cc2)n1
Aurora kinase B
  Ki: 0.002 µM (active)

## C=CCNC(=O)CCC(=O)NNc1nc2ccccc2c2nc(-c3ccccc3)nn12
[3]
  IC50: 6.87 µM (active)
Orexin receptor type 2 [4]
  IC50: > 88.8 µM (inactive)
[5]
  IC50: 1.2 µM (active)
Orexin receptor type 2 [6]
  IC50: > 50 µM (inactive)
CHO-K1
  IC50: > 66.2 µM (inactive)
[7]
  IC50: > 49.7 µM (inactive)

## CN1CCN(C(c2ccc(C(F)(F)F)cc2)c2ccc3cccnc3c2O)CC1 (centres undefined)
INS1
  AC50: 2.43 µM (active)
[8]
  AC50: 6.73 µM (active)
[9]
  EC50: > 180 µM (inactive)
Streptococcus
  EC50: 2.91 µM (active)
[10]
  EC50: 14 µM (active)
[11]
  EC50: > 150 µM (inconclusive)
[12]
  EC50: 7.46 µM (active)
[13]
  EC50: 8.06 µM (active)
[14]
  EC50: 0.676 µM (active)
[15]
  EC50: 1.64 µM (active)
[16]
  EC50: 9.1 µM (active)
[17]
  EC50: 2.92 µM (active)
[18]
  EC50: 10.3 µM (active)

## COc1ccc(N(CC(=O)NCCc2cccc(C)c2)S(=O)(=O)c2c(C)noc2C)cc1
[3]
  IC50: 7.14 µM (active)
Orexin receptor type 2 [4]
  IC50: > 88.8 µM (inactive)
[5]
  IC50: 0.653 µM (active)
Orexin receptor type 2 [6]
  IC50: 2.27 µM (active)
CHO-K1
  IC50: > 66.2 µM (inactive)
[7]
  IC50: > 49.8 µM (inactive)

## CC(C#N)c1c(Cl)cnn(Cc2cccc3ccccc23)c1=O (centres undefined)
[19]
  IC50: 3.1 µM (active)
[20]
  IC50: 3.1 µM (active)

## Cc1cccc(C)c1-n1c(SCC(=O)N2CC(=O)Nc3ccccc32)nc2ccccc2c1=O
[21]
  EC50: 0.01 µM (active)

## CC(=O)Nc1cc(-c2ccc(CO)cc2)cn2c(-c3cccc(C(F)(F)F)c3)cnc12
Melanocortin receptor 4
  EC50: > 89.2 µM (inactive)

## SC1=NC(C23CC4CC(CC(C4)C2)C3)=CC(c2ccc3c(c2)OCO3)N1 (centres undefined)
[22]
  IC50: 15 µM (active)
Streptokinase A
  EC50: 22.5 µM (active)
Streptococcus
  EC50: > 150 µM (not active)
[23]
  IC50: 56.8 µM (inactive)
[12]
  EC50: > 60 µM (not active)
[24]
  IC50: 3.52 µM (active)
[15]
  EC50: 2.44 µM (active)
[17]
  EC50: 13.6 µM (active)

## N#CC(c1c(Cl)cnn(Cc2cccc3ccccc23)c1=O)c1csc2ccccc12 (centres undefined)
[19]
  IC50: > 20 µM (inactive)
[20]
  IC50: > 20 µM (inactive)

## O=C(COc1ccc(Cl)cc1Cl)N(c1ccccn1)C1CCCCC1
[25]
  IC50: 0.0699 µM (active)

## CCOC(=O)C1CCCN(C(=O)c2cn(C)c(=O)c3cc(OC)c(OC)cc23)C1 (centres undefined)
[26]
  IC50: 14.1 µM (inactive)
